Measured values from PubChem BioAssay (NCI).
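Interpolation was linear, between the two tested concentrations surrounding the appropriate level; five concentrations were tested over 48 hours in 96-well plates. Definition used: TGI = concentration required for complete inhibition of growth.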

Tests used:
Test in all cases: NCI-60 cell line screen, 48 h
786-0 renal = tested on: 786-0 renal
A498 renal = tested on: A498 renal
A549 NSCLC = tested on: A549 NSCLC
ACHN renal = tested on: ACHN renal
BT-549 breast = tested on: BT-549 breast
CAKI-1 renal = tested on: CAKI-1 renal
CCRF-CEM leukemia = tested on: CCRF-CEM leukemia
COLO 205 colon = tested on: COLO 205 colon
DU-145 prostate = tested on: DU-145 prostate
EKVX NSCLC = tested on: EKVX NSCLC
HCC-2998 colon = tested on: HCC-2998 colon
HCT-116 colon = tested on: HCT-116 colon
HCT-15 colon = tested on: HCT-15 colon
HL-60(TB) leukemia = tested on: HL-60(TB) leukemia
HOP-62 NSCLC = tested on: HOP-62 NSCLC
HOP-92 NSCLC = tested on: HOP-92 NSCLC
HS 578T breast = tested on: HS 578T breast
HT29 colon = tested on: HT29 colon
IGROV1 ovarian = tested on: IGROV1 ovarian
K-562 leukemia = tested on: K-562 leukemia
KM12 colon = tested on: KM12 colon
LOX IMVI melanoma = tested on: LOX IMVI melanoma
M14 melanoma = tested on: M14 melanoma
MALME-3M melanoma = tested on: MALME-3M melanoma
MCF7 breast = tested on: MCF7 breast
MDA-MB-231 breast = tested on: MDA-MB-231 breast
MDA-MB-435 = tested on: MDA-MB-435
MDA-N = tested on: MDA-N
MOLT-4 leukemia = tested on: MOLT-4 leukemia
NCI-H226 lung = tested on: NCI-H226 lung
NCI-H23 lung = tested on: NCI-H23 lung
NCI-H460 lung = tested on: NCI-H460 lung
NCI-H522 lung = tested on: NCI-H522 lung
NCI/ADR-RES ovarian = tested on: NCI/ADR-RES ovarian
OVCAR-3 ovarian = tested on: OVCAR-3 ovarian
OVCAR-4 ovarian = tested on: OVCAR-4 ovarian
OVCAR-5 ovarian = tested on: OVCAR-5 ovarian
OVCAR-8 ovarian = tested on: OVCAR-8 ovarian
PC-3 prostate = tested on: PC-3 prostate
RPMI-8226 leukemia = tested on: RPMI-8226 leukemia
RXF 393 renal = tested on: RXF 393 renal
SF-268 CNS = tested on: SF-268 CNS
SF-295 CNS = tested on: SF-295 CNS
SF-539 CNS = tested on: SF-539 CNS
SK-MEL-2 melanoma = tested on: SK-MEL-2 melanoma
SK-MEL-28 melanoma = tested on: SK-MEL-28 melanoma
SK-MEL-5 melanoma = tested on: SK-MEL-5 melanoma
SK-OV-3 ovarian = tested on: SK-OV-3 ovarian
SN12C renal = tested on: SN12C renal
SNB-19 CNS = tested on: SNB-19 CNS
SNB-75 CNS = tested on: SNB-75 CNS
SR leukemia = tested on: SR leukemia
SW-620 colon = tested on: SW-620 colon
T-47D breast = tested on: T-47D breast
TK-10 renal = tested on: TK-10 renal
U251 CNS = tested on: U251 CNS
UACC-257 melanoma = tested on: UACC-257 melanoma
UACC-62 melanoma = tested on: UACC-62 melanoma
UO-31 renal = tested on: UO-31 renal

`Oc1ccccc1-c1nn2c(CCCCCCCCc3nnc4sc(-c5ccccc5O)nn34)nnc2s1` showed a TGI (786-0 renal) of over 100 µM, a TGI (A498 renal) of over 89 µM and a TGI (A549 NSCLC) of over 78 µM. The TGI (ACHN renal) was over 100 µM, the TGI (BT-549 breast) was over 100 µM and the TGI (CAKI-1 renal) was over 100 µM. The TGI (CCRF-CEM leukemia) was 39.3 µM, the TGI (COLO 205 colon) was over 100 µM and the TGI (DU-145 prostate) was over 75.5 µM. For the same compound, the TGI (EKVX NSCLC) was over 88.9 µM, the TGI (HCC-2998 colon) was over 100 µM and the TGI (HCT-116 colon) was over 71.2 µM. The TGI (HCT-15 colon) was over 100 µM, the TGI (HL-60(TB) leukemia) was 77.9 µM and the TGI (HOP-62 NSCLC) was over 92.2 µM. For the same compound, the TGI (HOP-92 NSCLC) was over 100 µM, the TGI (HS 578T breast) was over 100 µM and the TGI (HT29 colon) was over 67.7 µM. For the same compound, the TGI (IGROV1 ovarian) was over 100 µM, the TGI (K-562 leukemia) was over 100 µM and the TGI (KM12 colon) was over 100 µM. It also gave a TGI (LOX IMVI melanoma) of over 64.1 µM, a TGI (M14 melanoma) of over 77.7 µM and a TGI (MALME-3M melanoma) of over 100 µM. It also gave a TGI (MCF7 breast) of over 100 µM, a TGI (MDA-MB-231 breast) of over 100 µM and a TGI (MDA-MB-435) of over 100 µM. The TGI (MDA-N) was over 100 µM, the TGI (MOLT-4 leukemia) was 51.1 µM and the TGI (NCI-H226 lung) was over 100 µM. The TGI (NCI-H23 lung) was over 100 µM, the TGI (NCI-H460 lung) was over 100 µM and the TGI (NCI-H522 lung) was 82.5 µM. For the same compound, the TGI (NCI/ADR-RES ovarian) was over 100 µM, the TGI (OVCAR-3 ovarian) was 64.3 µM and the TGI (OVCAR-4 ovarian) was over 100 µM. It also gave a TGI (OVCAR-5 ovarian) of over 76.6 µM, a TGI (OVCAR-8 ovarian) of over 100 µM and a TGI (PC-3 prostate) of over 100 µM. It also gave a TGI (RPMI-8226 leukemia) of over 100 µM, a TGI (RXF 393 renal) of over 64.1 µM and a TGI (SF-268 CNS) of over 100 µM. The TGI (SF-295 CNS) was over 100 µM, the TGI (SF-539 CNS) was over 66.6 µM and the TGI (SK-MEL-2 melanoma) was over 67.5 µM. It also gave a TGI (SK-MEL-28 melanoma) of over 100 µM, a TGI (SK-MEL-5 melanoma) of 64.8 µM and a TGI (SK-OV-3 ovarian) of 83.8 µM. The TGI (SN12C renal) was over 100 µM, the TGI (SNB-19 CNS) was over 100 µM and the TGI (SNB-75 CNS) was over 86.1 µM. It also gave a TGI (SR leukemia) of over 48.7 µM, a TGI (SW-620 colon) of over 100 µM and a TGI (T-47D breast) of 52.1 µM. It also gave a TGI (TK-10 renal) of over 100 µM, a TGI (U251 CNS) of over 100 µM and a TGI (UACC-257 melanoma) of over 100 µM. For the same compound, the TGI (UACC-62 melanoma) was over 100 µM and the TGI (UO-31 renal) was 48.5 µM.
In the case of `CSc1ccc2c(cc1=O)[C@@H](NC(=O)c1ccc([N+](=O)[O-])cc1)CCc1cc(O)c(O)c(O)c1-2`, the TGI (786-0 renal) is reported as 84.1 µM, the TGI (A498 renal) is reported as over 100 µM and the TGI (A549 NSCLC) is reported as 77.7 µM. For the same compound, the TGI (ACHN renal) was over 100 µM, the TGI (BT-549 breast) was over 100 µM and the TGI (CAKI-1 renal) was 42.6 µM. For the same compound, the TGI (CCRF-CEM leukemia) was over 100 µM, the TGI (COLO 205 colon) was 53.7 µM and the TGI (DU-145 prostate) was over 100 µM. The TGI (EKVX NSCLC) was over 100 µM, the TGI (HCC-2998 colon) was over 100 µM and the TGI (HCT-116 colon) was over 100 µM. It also gave a TGI (HCT-15 colon) of 85.1 µM, a TGI (HL-60(TB) leukemia) of 57.5 µM and a TGI (HOP-62 NSCLC) of 33.4 µM. The TGI (HOP-92 NSCLC) was over 100 µM, the TGI (HS 578T breast) was 62 µM and the TGI (HT29 colon) was 40.8 µM. It also gave a TGI (IGROV1 ovarian) of over 100 µM, a TGI (K-562 leukemia) of over 100 µM and a TGI (KM12 colon) of 37.4 µM. It also gave a TGI (LOX IMVI melanoma) of over 100 µM, a TGI (M14 melanoma) of over 100 µM and a TGI (MALME-3M melanoma) of over 100 µM. It also gave a TGI (MCF7 breast) of over 100 µM, a TGI (MDA-MB-231 breast) of 81.2 µM and a TGI (MDA-MB-435) of over 100 µM. For the same compound, the TGI (MDA-N) was 67.4 µM, the TGI (MOLT-4 leukemia) was over 100 µM and the TGI (NCI-H226 lung) was over 100 µM. It also gave a TGI (NCI-H23 lung) of over 100 µM, a TGI (NCI-H460 lung) of over 100 µM and a TGI (NCI-H522 lung) of over 100 µM. The TGI (NCI/ADR-RES ovarian) was 53.6 µM, the TGI (OVCAR-3 ovarian) was 31.1 µM and the TGI (OVCAR-4 ovarian) was over 100 µM. For the same compound, the TGI (OVCAR-5 ovarian) was over 100 µM, the TGI (OVCAR-8 ovarian) was over 100 µM and the TGI (PC-3 prostate) was over 100 µM. It also gave a TGI (RPMI-8226 leukemia) of over 100 µM, a TGI (RXF 393 renal) of over 100 µM and a TGI (SF-268 CNS) of over 100 µM. The TGI (SF-295 CNS) was over 100 µM, the TGI (SF-539 CNS) was over 100 µM and the TGI (SK-MEL-2 melanoma) was over 100 µM. For the same compound, the TGI (SK-MEL-28 melanoma) was over 100 µM, the TGI (SK-MEL-5 melanoma) was 53.1 µM and the TGI (SK-OV-3 ovarian) was over 100 µM. The TGI (SN12C renal) was 62.5 µM, the TGI (SNB-19 CNS) was over 100 µM and the TGI (SNB-75 CNS) was over 100 µM. It also gave a TGI (SR leukemia) of over 100 µM, a TGI (SW-620 colon) of over 100 µM and a TGI (T-47D breast) of over 100 µM. It also gave a TGI (TK-10 renal) of over 100 µM, a TGI (U251 CNS) of over 100 µM and a TGI (UACC-257 melanoma) of over 100 µM. It also gave a TGI (UACC-62 melanoma) of over 100 µM and a TGI (UO-31 renal) of over 100 µM.
